Laboratory results reported in US20060165603A1, “Solubilisation of drugs in hfa propellant by means of emulsions” (Chiesi Farmaceutici S.p.A., priority 2002, published 2006).
Structures can show the parent of a compound that is named as a salt.

What was measured:
[1] = Emulsion formation of pMDI formulations in HFA propellant (visual); type: physicochemical; conditions: 5% w/w water, 25 μg/50 μl drug; for Comment (emulsion formation): HFA227
Procedure: (§1) Samples were prepared in clear glass formulation vials. The surfactants were added first followed by water then the other components of the formulation were added and the weight of bottle recorded after each addition. Final compositions were calculated as percentage w/w. Valves were crimped onto plastic-coated bottles or anodized aluminium cans before being placed in a sonicator for 5 minutes to allow as much dissolution of surfactants in the water as possible. The propellant was filled through the valve and the final weight of the packaged formulation recorded. In the case of the emulsions the packaged formulations were either shaken vigorously by hand or gently warmed in the hand (sonication where necessary) to induce an emulsion.
The surfactants used for these formulations are a Span85/AOT blend and the Synperonics L64.

[2] = Microemulsion formation / appearance of formulations in HFA227; type: physicochemical; conditions: 10% surfactant, 20% EtOH, HFA 227, 5% w/w water
Procedure: as §1, with “emulsion. For the microemulsion formulations the same method was used except the ethanol was added just before crimping and no sonication was required after HFA addition as a clear formulation was obtained immediately.” for “emulsion.”
The following table 3 lists the various microemulsion formulations prepared with Synperonic L64, AOT, and the fluorinated surfactant Zonyl FSN. L64 and Zonyl FSN produced clear systems.

CN1CCc2cccc3c2[C@H]1Cc1ccc(O)c(O)c1-3 [Apomorphine Hydrochloride, apomorphine hydrochloride]
Comment (emulsion formation) ([1]; 0.1% Span85, 0.05% AOT): Emulsion
Emulsion formation, HFA 134a ([1]; 0.1% Synperonic L64): Emulsion
Emulsion formation, HFA 227 ([1]; 0.1% Synperonic L64): Emulsion
Comment (emulsion formation) ([1]; 0.4% Span85, 0.05% AOT): Emulsion
Emulsion formation, HFA 134a ([1]; 0.5% Synperonic L64): Emulsion
Emulsion formation, HFA 227 ([1]; 0.5% Synperonic L64): Emulsion
Emulsion formation, HFA 134a ([1]; 1% Synperonic L64): Emulsion
Emulsion formation, HFA 227 ([1]; 1% Synperonic L64): Emulsion

CCC(=O)Oc1ccc2c(c1)CC[C@@H]1[C@@H]2CC[C@]2(C)[C@@H](OC(=O)CC)CC[C@@H]12 [Oestradiol Dipropionate, oestradiol dipropionate]
Comment (emulsion formation) ([1]; 0.1% Span85, 0.01% AOT): Emulsion
Comment (emulsion formation) ([1]; 0.1% Span85, 0.05% AOT): Emulsion
Emulsion formation, HFA 134a ([1]; 0.1% Synperonic L64): Emulsion
Emulsion formation, HFA 134a ([1]; 0.5% Synperonic L64): Emulsion
Emulsion formation, HFA 227 ([1]; 0.5% Synperonic L64): Immediate emulsion
Emulsion formation, HFA 134a ([1]; 1% Synperonic L64): Emulsion
Emulsion formation, HFA 227 ([1]; 1% Synperonic L64): Immediate emulsion

sodium dioctylsulpho-succinate [AOT]
Comment (microemulsion formulation appearance) [2]: Slight cloud, one apparent phase
